What was measured:
T47D, TYS and TDG cells = assay: MTS proliferation assay (4 days), T47D, TYS and TDG; format: cell-based, human
Experimental: FIG. 30 compares the ability of BHPI and test compounds to inhibit proliferation of T47D, TYS and TDG cells. T47D cells were in medium containing 10 FBS (which contains estrogen), TYS-4 and TDG-1 cells were in medium containing 10% cd-FBS (estrogen depleted). Cells are plated at 2,000 cells/well in 96 well plates. After 24 hours in medium containing FBS or charcoal-dextran treated FBS (depleted of endogenous estrogens), the indicated concentration of each compound (in DMSO at 1/1000th of the volume of medium) was added. After 2 days the medium was changed, and the compounds were added again. After 2 additional days (4 days total) MTS assays are used to evaluate cell proliferation. (n=6 ±S.E.M.).

TDG cells = assay: Trypan Blue exclusion cell death assay, TDG / TDG-Luc; format: cell-based, human; conditions: 24 hours
From the text: (§1) TRYPAN BLUE: For decades, viable cells have been measured by their ability to exclude the dye Trypan Blue. […] Dead cells, which have lost membrane integrity, take up the dye and are blue. Thus, the percentage of dead cells is the percentage of cells that are Trypan Blue positive out of the total cell population. Quantitative assessment of Trypan Blue uptake uses a cell counter from Fisher. Since the assay is instrument based, there is no observer bias in determining the percentage of Trypan Blue positive cells.
(§2) TRYPAN BLUE ASSAYS: Assays are performed on cells in 6 well plates: 300,000 cells are plated in each well of a 6-well plate in 3 ml of medium. After 24 hours, the DMSO vehicle or the indicated compound is added (in 1000th of the vol.) The cells incubated for an additional 24 hours, and then harvested in 0.25 ml of trypsin, followed after harvest by 0.75 ml of medium. The cells are spun down and resuspended in 100-200 μl of medium left that is over the cell pellet (resuspend cells by pipetting up and down a few times). Add 10 μl to 10 μl of trypan blue. Then 10 μl is inserted into the counting slide. After inserting the slide into the Fisher TC20 counting is automatic (these many cells are needed because an accurate ratio of Trypan Blue positive to Trypan Blue negative cells requires about 200 cells in the field the instrument counts).
The Trypan Blue cell death assay was used to evaluate the ability of the active enantiomer of C-105 [(−)-105] to kill ERα positive TDG-Luc cells. For all studies, 300,000 TDG-Luc cells/well in 10% FBS were plated in a 6-well plate in triplicate. 24 hours after plating, the indicated concentrations the active enantiomer of (−)-105, or BHPI (top) ICI, or OHT (Lower left) or (+)-105 (lower right) were added. After 24 hours, the cells were harvested, and the % dead cells was determined by automated Trypan Blue exclusion using the Countess II automated hemocytometer. Percentage of viable cells was calculated by doing 100-(Cell Death %). (n=3±SEM).
TDG cells were incubated for 24 hours with 75 nM of BHPI or 75 nM of each of the indicated test compounds: 4, 6 and (±)-105 (enantiomers not separated). Cell death was determined using the instrument-based Trypan Blue exclusion assay. Structures are in the Synthesis section. […] (n=3±SEM).

TYS cells = assay: Trypan Blue exclusion cell death assay, TYS / TYS-Luc; format: cell-based, human; conditions: 24 hours
From the text: as §1, §2
The Trypan Blue cell death assay was used to evaluate the ability of the active enantiomer of 105 (−) [(−)-105] to kill ERα positive MCF-7 and TYS-Luc, human breast cancer cells. 300,000 T47D cells/well in 10% FBS were plated in a 6-well plate in triplicate. 24 hours after plating, the indicated concentrations of BHPI, or the active enantiomer 105 (−) of C-105 [(−)-105] was added. After 24 hours, the cells were harvested, and the % dead cells was determined by automated Trypan Blue exclusion using the Countess II automated hemocytometer. Percentage of viable cells was calculated by doing 100-(Cell Death %). (n=3±SEM).
TYS cells were incubated for 24 hours with 35 nM of BHPI or 35 nM of each of the indicated test compounds: 2, 4, and 105. Cell death was determined using the instrument-based Trypan Blue exclusion assay.
TYS cells were incubated for 24 hours with 50 nM of BHPI or 50 nM of each of the indicated test compounds: 4, 6 and 105. Cell death was determined using the instrument-based Trypan Blue exclusion assay. (n=3±SEM).

T47D cells [1] = assay: Trypan Blue exclusion cell death assay, T47D / T47D-Luc; format: cell-based, human; conditions: 75 nM, 24 hours
From the text: as §1
as §2, with “After inserting the slide into the Fisher TC20 counting is automatic (these many cells are needed because an accurate ratio of Trypan Blue positive to Trypan Blue negative cells requires about 200 cells in the field the instrument counts).” left out
The Trypan Blue cell death assay was used to compare the ability of the active (−) enantiomer of C-105 and BHPI to kill estrogen receptor α (ERα) positive T47D, human breast cancer cells expressing luciferase (T47D-Luc cells). […] After 24 hours, the cells were harvested, and the % dead cells was determined by automated Trypan Blue exclusion using the Countess II automated hemocytometer. Percentage of viable cells was calculated by doing 100-(Cell Death %). […]
T47D cells were incubated for 24 hours with 75 nM of BHPI or 75 nM of each of the indicated test compounds: 4 and 6. Cell death was determined using the instrument-based Trypan Blue exclusion assay. […]
T47D cells were treated for 24 hours with 100 nM BHPI, or with 100 nM of each of the test compounds: 6, 8, and 105. […] Cell death was determined using the instrument-based Trypan Blue exclusion assay. […]

[2] = tested on: ERα Negative MCF-10A cells; assay: Trypan Blue exclusion cell death assay, MCF-10A; format: cell-based; conditions: 75 nM, 24 hours
From the text: as §1, §2
In FIG. 28, neither the test compounds nor BHPI kill non-tumorigenic ERα Negative MCF-10A breast cells. ERα Negative MCF-10A cells were maintained for 24 hours in DMSO vehicle or 75 nM of BHPI or 75 nM of each of the indicated test compounds: 4, 6 and 105. Cell death was determined using the instrument-based Trypan Blue exclusion assay. (n=3±SEM).

T47D cells [3] = conditions: 24 hours; up to 1,000 nM; FACS annexin V-FITC/PI
Experimental: One such change is loss of plasma membrane polarity. This is monitored using Annexin V. Dying cells also take up the dye propidium iodide. Propidium iodide (PI) fluoresces when it is intercalated into DNA. These assays monitor cells at specific stages of cell death.
FLOW CYTOMETRY (FITC) ASSAYS: Cells were seeded in 12-well plates, 75,000 cells/well, and allowed to adhere overnight. The next day, the indicated concentrations of raptinal (positive control), (−)-105, (±)-105, and (+)-105 were added and allowed to incubate at 37° C. for 24 hours (Final Volume: 1 ml, 0.1% DMSO). After incubation, cells were harvested and resuspended in 350 μl of cold Annexin binding buffer (10 mM HEPES, 140 mM NaCl, 2.5 mM CaCl2, pH 7.4) premixed with Annexin V-FITC and PI dyes. Samples were analyzed on a BD Biosciences LSRII flow cytometer, and data analysis was performed using FSC Express Version 5-6. Cell death was assessed relative to a DMSO treated control.
T47D, human breast cancer cells were plated at 75,000 cells/well. The next day, DMSO vehicle, 10 μM raptinal (control for 100% cell death), or 0, 50, 100 500 and 1,000 nM of BHPI or (±)-105, or 1,000 nM ICI/fulvestrant or 1,000 nM OHT was added. After 24 hours viable cells were determined by FACS using annexin V-FITC and propidium iodide dyes. (n=3 independent experiments ±SEM).
75,000 ERα positive T47D, human breast cancer cells, were plated/well. The next day, DMSO vehicle, 10 μM raptinal (control for 100% cell death), or 100 500 and 1,000 nM of (+)-105, or (−)-105 was added. After 24 hours viable cells were determined by FACS using annexin V-FITC and propidium iodide dyes. (n=1).

MCF-7 tumors = assay: MCF-7 orthotopic tumor model; format: in vivo, mouse; conditions: large established MCF-7 tumors; SERK-F6 10 or 40 mg/kg p.o. daily; fulv. 5 mg/mouse s.c. weekly
Experimental: FIG. 39. SERK-F6 eradicates wild-type ERα tumors via hyperactivation of aUPR. a, MCF-7 orthotopic tumors were established in Nu/J ovariectomized mice supplemented with a 60 day E2 pellet (0.36 mg) and grown to ˜400 mm^3 (28 days to establish), randomized, then treated with vehicle daily (n=3), vehicle weekly (n=3), fulv. weekly (5 mg/mouse, s.c., n=6), SERK-F6 daily (10 or 40 mg/kg p.o.). Vehicle arms were averaged. p values: *: p≤0.05, **: p≤0.01, ***: p≤0.001, ****: p≤0.0001. Tumor images were taken at the end of the study (day 21) and are representative of all tumors (n=6). b-e, MCF-7 cells were orthotopically bi-laterally grafted and tumors were grown until total tumor burden was ˜400 mm^3 prior to daily treatment with vehicle or SERK-F6 (40 mg/kg p.o.). Mice (n=5 per arm) were sacrificed after 3 days (b,c) and 7 days (d,e) and tumors harvested. […] Vinculin (Vin) was used as a loading control. […] Error bars represent S.E.M.
To probe the efficacy of SERK-F6 for killing ERα positive tumors, large MCF-7 tumors were grown and then intervened with therapy. […] The mice were then sacrificed prior to complete tumor eradication.

[4] = tested on: TYS and TDG breast cancer cells; assay: Killing of TYS and TDG breast cancer cells by endocrine therapy drugs; format: cell-based, human
OVCAR-3 cells = conditions: OVCAR-3 orthotopic xenograft

COc1ccc(C2(c3ccc(O)cc3)C(=O)Nc3c(C)cccc32)cc1 (stereo not shown) [Compound 2, 3-(4-hydroxyphenyl)-3-(4-methoxyphenyl)-7-methylindolin-2-one]
effectiveness in killing compared with BHPI (T47D, TYS and TDG cells): more effective than BHPI

COc1ccc(C2(c3ccc(O)cc3)C(=O)Nc3c(C(F)(F)F)cccc32)cc1 (stereo not shown) [Compound 4, 3-(4-hydroxyphenyl)-3-(4-methoxyphenyl)-7-(trifluoromethyl)indolin-2-one]
ability to kill TDG cells compared to BHPI (TDG cells; 75 nM): greatly increased ability to kill | ability to kill TYS cells compared to BHPI (TYS cells; 35 nM): greatly increased ability to kill | ability to kill TYS cells compared to BHPI (TYS cells; 50 nM): increased ability to kill | ability to kill T47D cells compared to BHPI (T47D cells [1]): greatly increased ability to kill | cell death of MCF-10A cells [2]: neither BHPI nor any of the test compounds induce significant death | effectiveness in killing compared with BHPI (T47D, TYS and TDG cells): more effective than BHPI

Cc1cccc2c1NC(=O)C2(c1ccc(O)cc1)c1ccc(OC(F)(F)F)cc1 (stereo not shown) [Compound 6, 3-(4-hydroxyphenyl)-7-methyl-3-(4-(trifluoromethoxy)phenyl)indolin-2-one]
cell death of MCF-10A cells [2]: neither BHPI nor any of the test compounds induce significant death | effectiveness in killing compared with BHPI (T47D, TYS and TDG cells): more effective than BHPI

CC/C(=C(\c1ccc(O)cc1)c1ccc(OCCN(C)C)cc1)c1ccccc1 [OHT, z-4-hydroxytamoxifen, reference compound]
killing of TDG-Luc cells, dose response (TDG cells): do not kill | cytotoxic versus cytostatic phenotype (T47D cells [3]): cytostatic

C[C@]12CC[C@@H]3c4ccc(O)cc4C[C@@H](CCCCCCCCC[S+]([O-])CCCC(F)(F)C(F)(F)F)[C@H]3[C@@H]1CC[C@@H]2O (stereo partly shown) [fulvestrant, reference compound]
killing of TDG-Luc cells, dose response (TDG cells): do not kill | tumor response (MCF-7 tumors): dramatic effects against these large and established tumors are not obtained | ability to kill TYS and TDG cells [4]: no ability at all to kill

CC(=O)O[C@H]1C(=O)[C@@]2(C)[C@H]([C@H](OC(=O)c3ccccc3)[C@]3(O)C[C@H](OC(=O)[C@H](O)[C@@H](NC(=O)c4ccccc4)c4ccccc4)C(C)=C1C3(C)C)[C@]1(OC(C)=O)CO[C@@H]1C[C@@H]2O [paclitaxel]
tumor growth / detectability (OVCAR-3 cells): ineffective

CC/C(=C(\c1ccccc1)c1ccc(OCCN(C)C)cc1)c1ccccc1 [tamoxifen]
ability to kill TYS and TDG cells [4]: no ability at all to kill
